# ChEMBL document CHEMBL1154815, “3D QSAR studies on ketoamides of human cathepsin K inhibitors based on two different alignment methods” (Eur J Med Chem, 2010)
# Molecular target: T1, Cathepsin K (Homo sapiens, UniProt P43235)
# T1 sequence (P43235 whole entry): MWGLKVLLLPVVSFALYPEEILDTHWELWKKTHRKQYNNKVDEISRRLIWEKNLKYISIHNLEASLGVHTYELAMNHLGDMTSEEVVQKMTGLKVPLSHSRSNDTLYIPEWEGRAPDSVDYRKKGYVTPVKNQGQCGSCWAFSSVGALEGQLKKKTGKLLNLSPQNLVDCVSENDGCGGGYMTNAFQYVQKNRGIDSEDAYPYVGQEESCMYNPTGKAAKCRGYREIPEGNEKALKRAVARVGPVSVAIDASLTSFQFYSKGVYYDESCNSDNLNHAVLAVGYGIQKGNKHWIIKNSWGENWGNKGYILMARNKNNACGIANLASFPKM
# Experiment: Inhibition of human cathepsin K
IC50 [nM],pIC50,Structure (SMILES)
3.02,–,CCCC[C@H](NC(=O)O[C@@H]1CN(C(=O)Cc2ccccc2)CC1(C)C)C(=O)C(=O)N[C@H](C)c1ccccc1
8.91,–,CCCC[C@H](NC(=O)O[C@@H]1CN(C(=O)c2ccno2)CC1(C)C)C(=O)C(=O)N[C@H](C)c1ccccc1
17,–,CCCC[C@H](NC(=O)O[C@@H]1CN(S(=O)(=O)Cc2ccccc2)CC1(C)C)C(=O)C(=O)N[C@H](C)c1ccccc1
26.9,–,CCCC[C@H](NC(=O)O[C@@H]1CN(C(=O)CCCc2ccccc2)CC1(C)C)C(=O)C(=O)N[C@H](C)c1ccccc1
2.09,–,CCCC[C@H](NC(=O)O[C@@H]1CN(C(=O)OCc2ccc(-c3ccccc3)cc2)CC1(C)C)C(=O)C(=O)N[C@H](C)c1ccccc1
–,10.6,CCCC[C@H](NC(=O)O[C@H](Cn1cnc(-c2ccc(C(F)(F)F)cc2)c1)C(C)(C)C)C(=O)C(=O)Nc1ccn[nH]1
2.82,–,CCCC[C@H](NC(=O)O[C@@H]1CN(C(=O)c2cc3ccccc3s2)CC1(C)C)C(=O)C(=O)N[C@H](C)c1ccccc1
4.27,–,CCCC[C@H](NC(=O)O[C@@H]1CN(C(=O)Nc2ccccc2)CC1(C)C)C(=O)C(=O)N[C@H](C)c1ccccc1
20.9,–,CCCC[C@H](NC(=O)O[C@@H]1CN(Cc2ccccc2)CC1(C)C)C(=O)C(=O)N[C@H](C)c1ccccc1
8.32,–,CCCC[C@H](NC(=O)O[C@@H]1CN(S(=O)(=O)c2ccccc2)CC1(C)C)C(=O)C(=O)N[C@H](C)c1ccccc1
32.4,–,CCCC[C@H](NC(=O)O[C@@H]1CN(C(=O)OCCc2ccccc2)CC1(C)C)C(=O)C(=O)N[C@H](C)c1ccccc1
6.61,–,CCCC[C@H](NC(=O)O[C@@H]1CN(C(=O)NCCc2ccccc2)CC1(C)C)C(=O)C(=O)N[C@H](C)c1ccccc1
15.1,–,CCCC[C@H](NC(=O)O[C@@H]1CN(C(=O)c2c(C)noc2C)CC1(C)C)C(=O)C(=O)N[C@H](C)c1ccccc1
64.6,–,CCCC[C@H](NC(=O)O[C@@H]1CN(C(=O)c2ccccc2)CC1(C)C)C(=O)C(=O)N[C@H](C)c1ccccc1
1.58,–,CCCC[C@H](NC(=O)O[C@@H]1CN(C(=O)c2ccc3ccccc3c2)CC1(C)C)C(=O)C(=O)N[C@H](C)c1ccccc1
14.1,–,CCCC[C@H](NC(=O)O[C@@H]1CN(C(=O)c2cccnc2)CC1(C)C)C(=O)C(=O)N[C@H](C)c1ccccc1
0.0257,–,CCCC[C@H](NC(=O)O[C@H](Cn1cc(-c2ccc(C(F)(F)F)cc2)cn1)C(C)(C)C)C(=O)C(=O)Nc1ccn[nH]1
1.7,–,CCCC[C@H](NC(=O)O[C@@H]1CN(C(=O)c2ccc3cc[nH]c3c2)CC1(C)C)C(=O)C(=O)N[C@H](C)c1ccccc1
3.8,–,CCCC[C@H](NC(=O)O[C@@H]1CN(C(=O)NCc2ccccc2)CC1(C)C)C(=O)C(=O)N[C@H](C)c1ccccc1
0.832,–,CCCC[C@H](NC(=O)O[C@@H](Cc1nnc(-c2ccccc2)o1)C(C)C)C(=O)C(=O)N[C@H](C)c1ccccc1
0.646,–,CCCC[C@H](NC(=O)O[C@H](Cc1nnc(-c2ccc(F)cc2)o1)C(C)(C)C)C(=O)C(=O)N[C@H]1CCCNC1=O
6.92,–,CCCC[C@H](NC(=O)O[C@@H]1CN(C(=O)c2ccc(-c3ccccc3)cc2)CC1(C)C)C(=O)C(=O)N[C@H](C)c1ccccc1
0.417,–,CCCC[C@H](NC(=O)O[C@@H]1CN(C(=O)c2ccc(C(F)(F)F)cc2)CC1(C)C)C(=O)C(=O)Nc1cc[nH]n1

Structure (SMILES),IC50 [nM],pIC50
CCCC[C@H](NC(=O)O[C@@H]1CN(C(=O)Oc2ccc(-c3ccccc3)cc2)CC1(C)C)C(=O)C(=O)N[C@H](C)c1ccccc1,5.01,–
CCCC[C@H](NC(=O)O[C@@H]1CN(C(=O)Oc2ccccc2)CC1(C)C)C(=O)C(=O)N[C@H](C)c1ccccc1,28.8,–
CCCC[C@H](NC(=O)O[C@@H]1CN(C(=O)Oc2ccc3ccccc3c2)CC1(C)C)C(=O)C(=O)N[C@H](C)c1ccccc1,57.5,–
